Experimental findings from ChEMBL document CHEMBL4020813, “The ProTide Prodrug Technology: From the Concept to the Clinic” (J Med Chem, 2018) are described below.

Structures are written as SMILES.

For orientation: TGI means the reduction of tumour growth relative to the control group. For orientation: half-life means how long it takes for the measured level to halve. The term Cmax denotes the peak of the concentration-time curve. The term IC50 denotes the concentration needed to halve the response being measured. As usually defined, the EC50 is the concentration at which the effect is half-maximal. A word on the CC50: it is the concentration at which the toxic effect on the cells reaches its halfway point. Usually Tmax stands for the time from dosing to the highest level. The term bioavailability denotes the share of a dose that reaches the circulation, judged against a reference dose that is usually intravenous.

For data set [1], the species on record is Homo sapiens. The data set can be described thus: Reduction in tumor growth in patient with solid malignancies. Type of data set: functional.
Data set [2] can be described thus: Half life in human. In kind it is ADME.
The species entered for data set [3] is Homo sapiens. Kind of data set: Cmax in human assessed as dFdCTP level. In kind it is ADME.
In another data set the test system is HT-29. Kind of data set: Antitumor activity against human HT-29 cells xenografted in nude mouse assessed as tumor growth inhibition relative to control. Type of data set: functional. (In general: A xenograft is tissue or cells of one species grown in another, often human tumour cells in immunodeficient mice.)
The test system of another data set is JM1. The data set can be described thus: Cytotoxicity against human JM1 cells. In kind it is cell-based.
Data set [4] relates to Human immunodeficiency virus 1. Kind of data set: Antiviral activity against HIV1 infected in human JM1 cells. The following applies: Human immunodeficiency virus 1, JM1. Type of data set: functional, cell-based.
The nature of data set [5]: Cytotoxicity against human primary macrophages after 4 to 5 days by Cell-Titer Glo viability assay. In kind it is cell-based, Macrophage.
The nature of data set [6]: Cytotoxicity against human HeLa after 4 to 5 days by Cell-Titer Glo viability assay. Type of data set: cell-based. The following applies: HeLa cells.
A short description of data set [7]: Cytotoxicity against human HuH7 after 4 to 5 days by Cell-Titer Glo viability assay. In kind it is cell-based, Huh-7. The following applies: HuH7 cells.
Data set [8] relates to Ebolavirus. The data set can be described thus: Antiviral activity against Ebolavirus infected in human primary macrophages after 48 hrs by immuno-staining assay. The following applies: Orthoebolavirus. Type of data set: functional.
For data set [9], the system named is Ebolavirus. The data set can be described thus: Antiviral activity against Ebolavirus infected in human HuH7 cells after 3 days by end point dilution assay. Type of data set: functional, cell-based. The following applies: Orthoebolavirus, Huh-7, 72 h.
For data set [10], the system named is Ebolavirus. Kind of data set: Antiviral activity against Ebolavirus infected in human HeLa cells after 48 hrs by immuno-staining assay. Type of data set: functional, cell-based. The following applies: Orthoebolavirus.
The nature of data set [11]: Half life in po dosed human. The following applies: in vivo. Type of data set: ADME, organism-based.
Data set [12] is described as follows: Tmax in po dosed human. Type of data set: ADME, organism-based. The following applies: in vivo.
Data set [13] can be described thus: Protein binding in human plasma. The following applies: read-out: PPB (converted). In kind it is ADME, cell-free.
Data set [14] can be described thus: Fraction absorbed in po dosed portal vein cannulated dog. The following applies: in vivo, read-out: Fabs. Type of data set: ADME, organism-based, Canis lupus familiaris.
Data set [15] can be described thus: Drug recovery in human urine at 100 to 800 mg. In kind it is ADME. The following applies: read-out: Drug recovery.
Data set [16] is described as follows: Fraction absorbed in human. The following applies: read-out: Fabs. Type of data set: ADME.
The nature of data set [17]: Oral bioavailability in portal vein cannulated dog. In kind it is ADME, organism-based, Canis lupus familiaris. The following applies: in vivo.
Data set [18] is described as follows: Renal clearance in human at 100 to 800 mg. Type of data set: ADME.
The subject of a further data set is Plasma. The data set can be described thus: Protein binding in plasma of patient with end stage renal disease. Type of data set: ADME, cell-free. The following applies: human.
The nature of data set [19]: Half life in beagle dog hepatic S9 fraction.
Data set [20] can be described thus: in vivo. The following applies: dog, po, 20 mg/kg.
A short description of data set [21]: Plasma concentration in dog at 5 mg/kg at 0.14 hrs post dose.
A short description of data set [22]: Half life in human MT2 cells by HPLC analysis.
Data set [23] is described as follows: in vivo. The following applies: dog, po, 2 mg/kg.
Data set [24] is described as follows: Half life in beagle dog intestine.
Data set [25] in a line: Plasma concentration in dog at 5 mg/kg at 1 hr post dose.
The nature of data set [26]: Half life in human primary macrophages assessed as nucleoside triphosphate level at 10 uM. In kind it is ADME, cell-based. The following applies: macrophage.
Data set [27] concerns Ebolavirus. The data set can be described thus: Antiviral activity against Ebolavirus H. sapiens-tc/COD/1995/Kikwit infected in rhesus monkey assessed as host survival at 10 mg/kg, iv administered as bolus dose. In kind it is functional. The following applies: Orthoebolavirus, in Macaca mulatta.
For data set [28], the system named is Ebolavirus. Kind of data set: Antiviral activity against Ebolavirus H. sapiens-tc/COD/1995/Kikwit infected in rhesus monkey assessed as host survival at 3 mg/kg, iv administered as bolus dose. In kind it is functional. The following applies: Orthoebolavirus, in Macaca mulatta.
Data set [29] is described as follows: Half life in rhesus monkey plasma at 10 mg/kg, iv administered as bolus dose by LC-MS/MS analysis. Type of data set: ADME, organism-based, Macaca mulatta.

In turn, `C[C@H](NP(=O)(OC[C@H]1O[C@@H](n2ccc(N)nc2=O)C(F)(F)[C@@H]1O)Oc1ccccc1)C(=O)OCc1ccccc1` (stereo partly specified) [FOSGEMCITABINE PALABENAMIDE] displayed a TGI in the data set filed under Homo sapiens [1] of over 30%. The half-life in [2] was 498 min. The peak concentration (Cmax) in the data set listed under Homo sapiens [3] is 475 µM.

Consider `C[C@H](NP(=O)(OC[C@H]1O[C@@H](n2cc(F)c(=O)[nH]c2=O)C[C@@H]1O)Oc1cccc2ccccc12)C(=O)OCc1ccccc1` (stereo partly specified) [FOSIFLOXURIDINE NAFALBENAMIDE], for which the TGI with HT-29 stood at 47%.

Turning to `COC(=O)[C@H](C)NP(=O)(OC[C@H]1O[C@@H](n2cc(C)c(=O)[nH]c2=O)C[C@@H]1N=[N+]=[N-])Oc1ccc(OC)cc1` (stereo partly specified), the midpoint of inhibition in the data set on JM1, the IC50, lay at 100 µM. In addition, the EC50 in data set [4] turned out to be 0.8 µM.

On to `O=c1[nH]cc(F)c(=O)[nH]1` [FLUOROURACIL], for which the inhibition of tumour growth (TGI) with HT-29 turned out to be 25%.

For `N#C[C@@]1(c2ccc3c(N)ncnn23)O[C@H](CO)[C@@H](O)[C@H]1O` [GS-441524], the CC50 in [5], in data set [6] and in [7] was over 20 µM each time. Moreover, the EC50 in the data set on Ebolavirus [8] was over 20 µM; in the data set on Ebolavirus [9] it was 1.5 µM; in the data set on Ebolavirus [10], over 20 µM.

`C[C@]1(F)[C@H](O)[C@@H](CO)O[C@H]1n1ccc(=O)[nH]c1=O`: the half-life in data set [11] is 28.8 to 45 min. For the same compound, in data set [12], the time to peak (Tmax) was in the range of 120 to 240 min.

Take `CC(C)OC(=O)[C@H](C)N[P@](=O)(OC[C@H]1O[C@@H](n2ccc(=O)[nH]c2=O)[C@](C)(F)[C@@H]1O)Oc1ccccc1` [SOFOSBUVIR]: the fraction unbound in [13] was 0.18. Further, the Fa in data set [14] is 36%; in data set [16] it was over 80%. Besides, in data set [15], the dose excreted was determined as 3.5%. In data set [17], the bioavailability worked out at 9.9%. The compound further displayed a CL renal in data set [18] of 238 mL/min. The time of peak concentration (Tmax) in data set [12] was in the range of 30 to 120 min. This compound also gave a PPB in the data set on Plasma of 85%.

Consider `CC(C)OC(=O)[C@H](C)N[P@](=O)(CO[C@H](C)Cn1cnc2c(N)ncnc21)Oc1ccccc1` [TENOFOVIR ALAFENAMIDE], for which the half-life came out at 31 min in data set [19], 28.3 min in data set [22], 92 min in data set [2] and 31 min in data set [24]. The bioavailability was 24.7% in the data set “in vivo [20]” and 1.7% in “in vivo [23]”. This compound registered a concentration at […] in [21] of 1.58 µM. Also, the concentration at 1 h in [25] was 18 µM.

Take `CCC(CC)COC(=O)[C@H](C)N[P@](=O)(OC[C@H]1O[C@@](C#N)(c2ccc3c(N)ncnn23)[C@H](O)[C@@H]1O)Oc1ccccc1`: the t1/2 in data set [26] was found to be 960 min. Further, the CC50 in [5], in data set [6] and in data set [7] was over 20 µM in each case. In addition, the survival at 10 mg/kg in the data set with Ebolavirus [27] turned out to be 100%. In addition, the values for the EC50 with Ebolavirus [8], with Ebolavirus [9] and in the data set with Ebolavirus [10] were 0.086 µM, 0.07 µM and 0.14 µM, respectively. In addition, the survival at 3 mg/kg in the data set with Ebolavirus [28] came out at 50%. This compound also showed a half-life in data set [29] of 23.4 min.
